Data set [1] is described as follows: physchem. The following applies: 50% w/w aqueous hpcd. How it is done: An excess of E2-CDS was sonicated with an aqueous solution of the appropriate solubilizing agent for 30 minutes. The suspension was then centrifuged, filtered through 0.45 µm polyvinylidene difluoride (Millex-HV4, Millipore®) membranes and analyzed by HPLC. […] An estimation of the bulk equilibrium constant was obtained by correlating the millimolarity of E2-CDS solubilized and the millimolarity of the cyclodextrin added. This latter value was calculated using the average molecular weight of the isomeric mixture determined by mass spectroscopy. The solubilizing effect of a 50% w/w solution of HPCD was also examined for a series of steroids and dihydropyridines (CDS). These studies were carried out in a similar manner to those previously described.
For the CDS, the wavelength monitored was 360 nm while for estrogen 220 nm was used.
Separation was achieved on an Analytical Sciences, Inc. (ASI) 10 µm particle size, C18 reversed phase 30 cm x 3.9 mm i.d. analytical column. The flow rate was 1 mL/min, the compounds were detected at 360 nm and in all determinations the temperature was ambient. […] For the GABA-CDS1, a mobile phase consisting of 50:1:1:48 of the same components was required. […] Other compounds were assayed spectrophotometrically.

The nature of data set [2]: Preparation of solid freeze-dried HPCD complexes: degree of incorporation. Format: physicochemical. The following applies: for Amount of Drug in Dry Complex: freeze-dried complex from 50% w/w HPCD (ASDS 5.1). How it is done: An excess of E2-CDS was added and the solution then was purged with helium. The resulting suspension was then sonicated for 30 minutes, filtered through a glass filter (ASTM 10-15M, Pyrex No. 36060) and freeze-dried overnight. Best results were obtained by hard-freezing the aqueous solution of the E2-CDS/HPCD complex for at least 10 hours before lyophilization. The degree of complex formation was determined by dissolving a small amount of the dry complex in methanol and then analyzing by high pressure liquid chromatography (HPLC).
An excess of E2-CDS or other CDS was added to a 50% w/w solution of HPCD. The suspension was sonicated for 30 minutes, filtered through 0.45 µm PVDF membranes and freeze-dried. The degree of incorporation was determined either spectrophotometrically or by HPLC. In some cases, the effect of solubilizing agents on the degree of incorporation was examined. This involved adding small amounts of polyoxyethylene 20 cetyl ether (Brij), polyoxyethylene sorbitan monooleate (Tween 80) or ethanol to the aqueous solution prior to lyophilization.
The retention time was 5.2 min. Other compounds were assayed spectrophotometrically.
The solution was degassed and the suspension was sonicated for 30 minutes, after which it was filtered and the filtrate was lyophilized. The dried filtrate contained 65.6 mg testosterone propionate or 29.6 mg T-CDS1 per gram of cyclodextrin complex. Compounds were analyzed for decomposition by thin-layer chromatography and ultraviolet absorption.

Data set [3] is described as follows: Observation of toxicity on injection (Experiments 1-3). Format: in vivo, Male Sprague-Dawley rats. The following applies: rats. How it is done: On day 15 after orchidectomy, rats were ether-anesthetized and the right external jugular vein exposed. Animals were then administered one of the following: testosterone-chemical delivery system (T-CDS1 or T-CDS2), testosterone (Steraloids Inc., Wilton, NH) or the vehicle, dimethyl sulfoxide (DMSO; Fisher Scientific, Fair Lawn, NJ). The testosterone-chemical delivery systems were given at doses equimolar to testosterone (25 mg/kg) so that T-CDS1 was administered at 35.5 mg/kg and rats received T-CDS2 at a dose of 45.1 mg/kg. DMSO was injected at a volume of 1 mL/kg. All compounds were administered by infusion over a 2 minute period. One milliliter of blood was withdrawn from the external jugular vein immediately before giving the drugs (1000 hours) and blood was sampled by cardiac puncture after 6, 12, 24 hours and on days 4 and 7. The sera were separated by centrifugation at 500 x g for 20 min at 4°C and stored at -20°C.
Two weeks after orchidectomy, rats were administered either T-CDS1, testosterone propionate (TP; Steraloids Inc.) or DMSO by means of intravenous infusion into the right external jugular vein in an effort to more effectively enhance the brain delivery of testosterone. It has been shown that slow infusion improves brain delivery of drugs attached to the chemical-delivery systems. […]

≈ marks a conversion by molar mass, not a printed value.

This is an account of results in patent EP0335545B2, “Pharmaceutical formulations for parenteral use” (UNIVERSITY OF FLORIDA, priority 1988, dated 1989).

In turn, `CN1C=CCC(C(=O)NCCc2ccc(OC(=O)C(C)(C)C)c(OC(=O)C(C)(C)C)c2)=C1` [DA-CDS, 1-methyl-3-{{N-{β-[3,4-bis-(pivalyloxy)phenyl]ethyl}-carbamoyl}}-1,4-dihydropyridine] registered a solubility in data set [1] of 16 mg/mL (≈ 36.2 mM). The “Amount of Drug in Dry Complex” value in data set [2] is listed as 27 mg/g.

In the case of `CN1C=CCC(C(=O)O[C@H]2CC[C@H]3[C@@H]4CCC5=CC(=O)CC[C@]5(C)[C@H]4CC[C@]23C)=C1` [T-CDS1, 17β-[(1,4-dihydro-1-methyl-3-pyridinylcarbonyl)oxy]androst-4-en-3-one], in data set [1], the solubility was 17.1 mg/mL (≈ 41.8 mM). For the same compound, the “Amount of Drug in Dry Complex” value in data set [2] is recorded as 29.0 mg/g. Besides, the “drug content of dried filtrate” value in data set [2] (lyophilized from 50% w/v aqueous HPCD, degree of substitution 5.1) is listed as 29.6 mg per gram of cyclodextrin co. In addition, the toxicity on administration entry in data set [3] (DMSO vehicle, i.v. injection or infusion) is “respiratory distress and/or death”; in data set [3] (complexed with HPCD, tail vein injection), “No respiratory distress or animal loss”.

Consider `CCC(=O)O[C@H]1CC[C@H]2[C@@H]3CCC4=CC(=O)CC[C@]4(C)[C@H]3CC[C@]12C` [Testosterone 17-Propionate], for which the solubility in data set [1] turned out to be 38 mg/mL (≈ 110 mM). In addition, the “Amount of Drug in Dry Complex” value in data set [2] turned out to be 65.6 mg/g.

For orientation: solubility means the dissolved amount per volume that the medium holds. The low end stands for a poorly soluble substance, the high end for a readily soluble substance.
